Test results from patent US20240245617A1, “LIPID-BASED TOPICAL INJECTION FORMULATIONS” (Beijing Jitai Pharmaceutical Technology Co., Ltd., priority 2022, published 2024).

How the values were obtained:
[1] = Particle size and PDI of lipid nanoparticles by dynamic light scattering; assay type: physicochemical; settings: LNP ionizable lipid/cholesterol/DSPC/DMG-PEG2000 50/38.5/10/1.5 mol%, N/P 6, luciferase mRNA
Procedure: (§1) The particle size and particle size dispersity index (polydispersity index, PDI) of the prepared lipid nanoparticles were measured using a Zetasizer Pro (purchased from Malvern Instruments Ltd) and a DynaPro NanoStar (purchased from Wyatt) dynamic light scattering instrument. The degree of RNA encapsulation by lipid nanoparticles was characterized by the Encapsulation Efficiency %, which reflects the degree of binding of lipid nanoparticles to RNA fragments. This parameter was measured by the method of Quant-it™ RiboGreen RNA Assay (purchased from Invitrogen). Lipid nanoparticle samples were diluted in TE buffer (10 mM Tris-HCl, 1 mM EDTA, pH=7.5). A portion of the sample solution was removed, to which 0.5% Triton (Triton X-100) was added, and then allowed to stand at […] for 30 minutes. Immediately after the addition of RIBOGREEN® reaction solution, the fluorescence values were read on a Varioskan LUX multifunctional microplate reader (purchased from Thermofisher) at 485 nm for absorption and 528 nm for emission to give the encapsulation efficiency values.
The preparation of lipid nanoparticles includes microfluidic mixing system, but is not limited to this method, which also includes T-type mixer and ethanol injection method, etc.

[2] = test system: C57BL/6 mice; experiment: In vivo bioluminescence after intravenous administration of lipid nanoparticles encapsulating luciferase mRNA; settings: 0.5 mg/kg mRNA, liver
Procedure: The delivery effect and safety of nanoparticles encapsulating luciferase mRNA (Trilink, L-7202) in mice were evaluated. The test mice were SPF-grade C57BL/6 mice, female, 6-8 weeks old, weighing 18-22 g, and were purchased from SPF (Beijing) Biotechnology Co., Ltd. All animals were acclimatized for more than 7 days prior to the experiment, and had free access to food and water during the experiment. The conditions include alternating light and dark for 12/12 h, the indoor temperature of 20-26° C. and the humidity of 40-70%. The mice were randomly grouped. The lipid nanoparticles encapsulating luciferase mRNA prepared above were injected into mice by intravenous administration at a single dose of 0.5 mg/kg mRNA, and the mice were subjected to in vivo bioluminescence assay using a Small Animal In Vivo Imaging System (IVIS LUMINA III, purchased from PerkinElmer) at 6 h after administration. The assay was performed as follows: D-luciferin solution was prepared in saline at a concentration of 15 mg/mL, and each mouse was given the substrate by intraperitoneal injection. At ten minutes after administration of the substrate, the mice were anesthetized in an anesthesia chamber with isoflurane at a concentration of 2.5%. […] Data acquisition and analysis were performed on the liver.
The in vivo delivery efficiency of lipid nanoparticle carriers was expressed as the mean values of fluorescence intensity and total photon count in different animals within the same subject group, as shown in Table 4. Higher values of fluorescence intensity and total photon count indicate higher in vivo delivery efficiency of this mRNA fragment by lipid nanoparticles. The lipid nanoparticles containing the cationic lipids of the present disclosure have good in vivo delivery efficiency and mainly target the liver.

[3] = Encapsulation efficiency of lipid nanoparticles, Quant-it RiboGreen RNA Assay; assay type: physicochemical; settings: LNP ionizable lipid/cholesterol/DSPC/DMG-PEG2000 50/38.5/10/1.5 mol%, N/P 6, luciferase mRNA
Procedure: as §1
The produced lipid nanoparticles were characterized using the same method as in Assay example 2, and the results are shown in Table 6 (the percentage content of each component is represented by molar percentage).

| Particle size (nm) [1] [nm] | Particle size dispersity (PDI) [1] | Encapsulation efficiency (%) [3] [%] | SMILES | Total photon count in vivo at 6 hours after administration (Total Flux) [2] |
| --- | --- | --- | --- | --- |
| 138.16 | 0.06 | 80.36 | CCCC/C=C\CCCCOC(=O)C(C)(C)CCCCCC(CCCCCC(C)(C)C(=O)OCCCC/C=C\CCCC)OC(=O)CCCN(C)C [Compound 28] | 3.21E+09 |
| – | – | – | CCCCCCCCCSC(=O)C(C)(C)CCCCCC(CCCCCC(C)(C)C(=O)SCCCCCCCCC)OC(=O)CC1CCN(C)CC1 [Compound 108] | 1.21E+10 |
| – | – | – | CCCCCCCCCSC(=O)C(C)(C)CCCCCC(CCCCCC(C)(C)C(=O)SCCCCCCCCC)OC(=O)CC1CCN(CC)CC1 [Compound 109] | 1.32E+10 |
| – | – | – | CCCCCCCCCOC(=O)C(C)(C)CCCCCC(CCCCCC(C)(C)C(=O)OCC(CCCCC)CCCCCCC)OC(=O)CC1CCN(C)CC1 (stereo not shown) [Compound 111] | 1.79E+10 |
| – | – | – | CCCCCCCCCSC(=O)C(C)(C)CCCCCC(CCCCCC(C)(C)C(=O)OCC(CCCCC)CCCCCCC)OC(=O)CC1CCN(C)CC1 (stereo not shown) [Compound 112] | 3.53E+10 |
| – | – | – | CCCCCCCC#CCOC(=O)C(C)(C)CCCCCC(CCCCCC(C)(C)C(=O)OCCCC(CCCCC)CCCCC)OC(=O)CCCN(C)C (stereo not shown) [Compound 115] | 2.56E+10 |
| – | – | – | CCCCCCCC#CCOC(=O)C(C)(C)CCCCCC(CCCCCC(C)(C)C(=O)OCC(CCCCC)CCCCCCC)OC(=O)CCCN(C)C (stereo not shown) [Compound 116] | >4.00E+10 |
| – | – | – | CCCCC(CC#CCOC(=O)C(C)(C)CCCCCC(CCCCCC(C)(C)C(=O)OCC#CCC(CCCC)CCCC)OC(=O)CCCN(C)C)CCCC [Compound 117] | 4.48E+09 |
| – | – | – | CCCCCCCCCOC(=O)C(C)(C)CCCCCC(CCCCCC(C)(C)C(=O)OCC#CC(CCCCCC)CCCCCC)OC(=O)CCCN(C)C (stereo not shown) [Compound 118] | 3.14E+10 |
| 80.98 | 0.05 | 86.92 | CCCCCCCCCSC(=O)C(C)(C)CCCCCC(CCCCCC(C)(C)C(=O)OCC#CC(CCCC)CCCC)OC(=O)CCCN(C)C (stereo not shown) [Compound 119] | 3.25E+10 |
| 103.57 | 0.06 | 93.62 | CCCCCCCCCSC(=O)C(C)(C)CCCCCC(CCCCCC(C)(C)C(=O)OCC#CCC(CCCC)CCCC)OC(=O)CCCN(C)C (stereo not shown) [Compound 121] | >4.00E+10 |
| – | – | – | CCCCCCCCCOC(=O)C(C)(C)CCCCC(CCCCC(C)(C)C(=O)OCC(CCCCC)CCCCCCC)OC(=O)CCCN(C)C (stereo not shown) [Compound 122] | >4.00E+10 |
| – | – | – | CCCCCCCCCCOC(=O)C(C)(C)CCCCC(CCCCC(C)(C)C(=O)OCC(CCCCC)CCCCCCC)OC(=O)CCCN(C)C (stereo not shown) [Compound 123] | >4.00E+10 |
| – | – | – | CCCCCCCCCOC(=O)C(C)(C)CCCCCCC(CCCCCCC(C)(C)C(=O)OCC(CCCCC)CCCCCCC)OC(=O)CCCN(C)C (stereo not shown) [Compound 125] | 1.99E+10 |
| – | – | – | CCCCCCCCCOC(=O)C(C)(C)CCCCCCC(CCCCCCC(C)(C)C(=O)OCC(CCCCC)CCCCCCC)OC(=O)CCCCN(C)C (stereo not shown) [Compound 126] | 1.77E+10 |
| – | – | – | CCCCCCC(CCCCCC)CCOC(=O)CCC(C)(C)CCCC(CCCC(C)(C)CCC(=O)OCCC(CCCCCC)CCCCCC)OC(=O)CCCN(C)C [Compound 128] | 1.00E+10 |
| – | – | – | CCCCCCCC(CCCCCCC)COC(=O)CCC(C)(C)CCCC(CCCC(C)(C)CCC(=O)OCC(CCCCCCC)CCCCCCC)OC(=O)CCCN(C)C [Compound 129] | 7.82E+09 |
| – | – | – | CCCCCCCCCOC(=O)CCCCCCC(CCCCCCC(=O)OCCCCCCCCC)OC(=O)CCCN(C)C [Compound 130] | 4.45E+07 |
| – | – | – | CCCCCCCCCOC(=O)CCCCCCC(CCCCCCC(=O)OCC(CCCCC)CCCCCCC)OC(=O)CCCN(C)C (stereo not shown) [Compound 131] | 1.57E+09 |
